pEC50: −log10 of the molar value.
What was measured:
[1] = target: Human immunodeficiency virus type 1 protease (Human immunodeficiency virus 1) (UniProt Q72874); test: Inhibitory activity against HIV protease at a compound concentration of 1 nM in MT-4 cells; format: cell-based; conditions: MT4
[2] = system: Human immunodeficiency virus 1; test: Antiviral activity was tested in absence of human serum in MT-4 cells (in vitro); format: functional, organism-based; conditions: Human immunodeficiency virus 1, MT4
[3] = system: Human immunodeficiency virus 1; test: Antiviral activity was tested in presence of 50% human serum in MT-4 cells (in vitro); format: functional, organism-based; conditions: Human immunodeficiency virus 1, MT4
[4] = target: Human immunodeficiency virus type 1 protease (Human immunodeficiency virus 1) (UniProt Q72874); test: Inhibitory activity against HIV protease at a compound concentration of 0.5 nM in MT-4 cells; format: cell-based; conditions: MT4
[5] = target: Human immunodeficiency virus type 1 protease (Human immunodeficiency virus 1) (UniProt Q72874); test: Inhibitory activity against HIV protease at a compound concentration of 31 nM in MT-4 cells; format: cell-based; conditions: MT4
[6] = target: Human immunodeficiency virus type 1 protease (Human immunodeficiency virus 1) (UniProt Q72874); test: Inhibitory activity against HIV protease at a compound concentration of 2.4 nM in MT-4 cells; format: cell-based; conditions: MT4
[7] = target: Human immunodeficiency virus type 1 protease (Human immunodeficiency virus 1) (UniProt Q72874); test: Inhibitory activity against HIV protease at a compound concentration of 12 nM in MT-4 cells; format: cell-based; conditions: MT4

Structure (SMILES) | inhibition [1] | pEC50 [2] | pEC50 [3] | inhibition [4] | inhibition [5] | inhibition [6] | inhibition [7]
Cc1cc(N)cc(C)c1SCC(=O)N[C@@H](Cc1ccccc1)C[C@H](O)[C@H](Cc1ccccc1)NC(=O)O[C@H]1COC2OCCC21 (stereo not given in full) | 56% | 5.24 | 5.98 | – | – | – | –
Cc1cc(N(C)C)cc(C)c1OCC(=O)N[C@@H](Cc1ccccc1)C[C@H](O)[C@H](Cc1ccccc1)NC(=O)O[C@H]1COC2OCCC21 (stereo not given in full) | – | 6.80 | 5.68 | 43% | – | – | –
Cc1cc(N)cc(C)c1[S+]([O-])CC(=O)N[C@@H](Cc1ccccc1)C[C@H](O)[C@H](Cc1ccccc1)NC(=O)O[C@H]1COC2OCCC21 (stereo not given in full) | – | 4.43 | 4.01 | – | 50% | – | –
CNc1cc(C)c(OCC(=O)N[C@@H](Cc2ccccc2)C[C@H](O)[C@H](Cc2ccccc2)NC(=O)OC2COC3OCCC23)c(C)c1 (stereo not given in full) | – | 6.95 | 6.29 | 64% | – | – | –
CCOC(=O)c1cc(C)c(OCC(=O)N[C@@H](Cc2ccccc2)C[C@H](O)[C@H](Cc2ccccc2)NC(=O)O[C@H]2COC3OCCC32)c(C)c1 (stereo not given in full) | – | 6.97 | 5.49 | 84% | – | – | –
Cc1cc2nsnc2c(C)c1OCC(=O)N[C@@H](Cc1ccccc1)C[C@H](O)[C@H](Cc1ccccc1)NC(=O)O[C@H]1COC2OCCC21 (stereo not given in full) | – | 6.21 | 5.25 | 71% | – | – | –
Cc1cc2oc(O)nc2c(C)c1OCC(=O)N[C@@H](Cc1ccccc1)C[C@H](O)[C@H](Cc1ccccc1)NC(=O)O[C@H]1COC2OCCC21 (stereo not given in full) | – | 6.80 | 6.30 | 61% | – | – | –
Cc1cccc(C)c1NCC(=O)N[C@@H](Cc1ccccc1)C[C@H](O)[C@H](Cc1ccccc1)NC(=O)O[C@H]1COC2OCCC21 (stereo not given in full) | – | 6.60 | 5.67 | 69% | – | – | –
Cc1cc(C(N)=O)cc(C)c1OCC(=O)N[C@@H](Cc1ccccc1)C[C@H](O)[C@H](Cc1ccccc1)NC(=O)O[C@H]1COC2OCCC21 (stereo not given in full) | – | 6.59 | 6.01 | – | – | – | –
Cc1ncnc(C)c1OCC(=O)N[C@@H](Cc1ccccc1)C[C@H](O)[C@H](Cc1ccccc1)NC(=O)O[C@H]1COC2OCCC21 (stereo not given in full) | – | 6.09 | 5.86 | 56% | – | – | –
Cc1cc(C(=O)N(C)C)cc(C)c1OCC(=O)N[C@@H](Cc1ccccc1)C[C@H](O)[C@H](Cc1ccccc1)NC(=O)O[C@H]1COC2OCCC21 (stereo not given in full) | – | 5.64 | 4.92 | – | – | – | –
Cc1cc(OCCN2CCOCC2)cc(C)c1OCC(=O)N[C@@H](Cc1ccccc1)C[C@H](O)[C@H](Cc1ccccc1)NC(=O)O[C@H]1COC2OCCC21 (stereo not given in full) | – | 7.62 | 6.47 | 77% | – | – | –
Cc1cc2[nH]c(O)nc2c(C)c1OCC(=O)N[C@@H](Cc1ccccc1)C[C@H](O)[C@H](Cc1ccccc1)NC(=O)O[C@H]1COC2OCCC21 (stereo not given in full) | – | 6.01 | 5.51 | 85% | – | – | –
Cc1cc(Cl)c(N)c(C)c1OCC(=O)N[C@@H](Cc1ccccc1)C[C@H](O)[C@H](Cc1ccccc1)NC(=O)O[C@H]1COC2OCCC21 (stereo not given in full) | – | 7.21 | 6.18 | 86% | – | – | –
O=C(COc1ccccc1)N[C@@H](Cc1ccccc1)C[C@H](O)[C@H](Cc1ccccc1)NC(=O)O[C@H]1COC2OCCC21 (stereo not given in full) | – | – | – | 61% | – | – | –
Cc1ccccc1OCC(=O)N[C@@H](Cc1ccccc1)C[C@H](O)[C@H](Cc1ccccc1)NC(=O)O[C@H]1COC2OCCC21 (stereo not given in full) | – | – | – | 84% | – | – | –
Cc1cccc(C)c1N(C)CC(=O)N[C@@H](Cc1ccccc1)C[C@H](O)[C@H](Cc1ccccc1)NC(=O)O[C@H]1COC2OCCC21 (stereo not given in full) | – | 5.54 | 4.52 | – | – | 50% | –
Cc1cc(N2COCC2=O)cc(C)c1OCC(=O)N[C@@H](Cc1ccccc1)C[C@H](O)[C@H](Cc1ccccc1)NC(=O)O[C@H]1COC2OCCC21 (stereo not given in full) | – | 6.67 | 6.03 | 74% | – | – | –
Cc1cc(NS(C)(=O)=O)cc(C)c1OCC(=O)N[C@@H](Cc1ccccc1)[C@@H](O)C[C@H](Cc1ccccc1)NC(=O)O[C@H]1COC2OCCC21 (stereo not given in full) | – | – | – | – | – | – | 50%
Cc1cc([N+](=O)[O-])cc(C)c1OCC(=O)N[C@@H](Cc1ccccc1)C[C@H](O)[C@H](Cc1ccccc1)NC(=O)OC1COC2OCCC12 (stereo not given in full) | – | 6.03 | 5.09 | 53% | – | – | –
Cc1cc(N)cc(C)c1S(=O)(=O)CC(=O)N[C@@H](Cc1ccccc1)C[C@H](O)[C@H](Cc1ccccc1)NC(=O)O[C@H]1COC2OCCC21 (stereo not given in full) | – | 4.99 | 4.21 | – | – | – | 50%
Cc1cc(C)c(OCC(=O)N[C@@H](Cc2ccccc2)C[C@H](O)[C@H](Cc2ccccc2)NC(=O)O[C@H]2COC3OCCC32)c(C)c1N (stereo not given in full) | – | 7.64 | 6.93 | 74% | – | – | –
Cc1cc(N)c(N)c(C)c1OCC(=O)N[C@@H](Cc1ccccc1)C[C@H](O)[C@H](Cc1ccccc1)NC(=O)O[C@H]1COC2OCCC21 (stereo not given in full) | – | 6.19 | 5.83 | 76% | – | – | –
Cc1cc2[nH]nnc2c(C)c1OCC(=O)N[C@@H](Cc1ccccc1)C[C@H](O)[C@H](Cc1ccccc1)NC(=O)O[C@H]1COC2OCCC21 (stereo not given in full) | – | 6.73 | 5.73 | 67% | – | – | –
CNC(=O)c1cc(C)c(OCC(=O)N[C@@H](Cc2ccccc2)C[C@H](O)[C@H](Cc2ccccc2)NC(=O)O[C@H]2COC3OCCC32)c(C)c1 (stereo not given in full) | – | 6.66 | 6.27 | – | – | – | –

Second part, the compound after the results:

inhibition [1] | pEC50 [2] | pEC50 [3] | inhibition [4] | inhibition [5] | inhibition [6] | inhibition [7] | Structure (SMILES)
– | 7.21 | 6.57 | 91% | – | – | – | Cc1cccc(C)c1OCC(=O)N[C@@H](Cc1ccccc1)[C@@H](O)C[C@H](Cc1ccccc1)NC(=O)OC1COC2OCCC12 (stereo not given in full)
– | 7.39 | 6.52 | 87% | – | – | – | Cc1cccc(C)c1OCC(=O)N[C@@H](Cc1ccccc1)C[C@H](O)[C@H](Cc1ccccc1)NC(=O)O[C@H]1COC2OCCC21 (stereo not given in full)
– | 6.74 | 6.36 | 49% | – | – | – | Cc1ccnc(C)c1OCC(=O)N[C@@H](Cc1ccccc1)C[C@H](O)[C@H](Cc1ccccc1)NC(=O)O[C@H]1COC2OCCC21 (stereo not given in full)
– | 6.45 | 5.86 | 74% | – | – | – | COc1cccc(C)c1OCC(=O)N[C@@H](Cc1ccccc1)C[C@H](O)[C@H](Cc1ccccc1)NC(=O)O[C@H]1COC2OCCC21 (stereo not given in full)
– | 6.69 | 6.32 | 82% | – | – | – | Cc1cc(C)c(OCC(=O)N[C@@H](Cc2ccccc2)C[C@H](O)[C@H](Cc2ccccc2)NC(=O)O[C@H]2COC3OCCC32)c(C)c1 (stereo not given in full)
– | 7.33 | 6.89 | 60% | – | – | – | Cc1cc(N)cc(C)c1OCC(=O)N[C@@H](Cc1ccccc1)C[C@H](O)[C@H](Cc1ccccc1)NC(=O)O[C@@H]1COC2OCCC21 (stereo not given in full)
– | 8.05 | 7.51 | 78% | – | – | – | Cc1cc(N)cc(C)c1OCC(=O)N[C@@H](Cc1ccccc1)C[C@H](O)[C@H](Cc1ccccc1)NC(=O)O[C@H]1COC2OCCC21 (stereo not given in full)
– | 6.57 | 6.06 | 69% | – | – | – | Cc1cc(F)cc(C)c1OCC(=O)N[C@@H](Cc1ccccc1)C[C@H](O)[C@H](Cc1ccccc1)NC(=O)O[C@H]1COC2OCCC21 (stereo not given in full)
– | 7.92 | 7.17 | 70% | – | – | – | Cc1cc(N)cc(C)c1OCC(=O)N[C@@H](Cc1ccccc1)C[C@H](O)[C@H](Cc1ccccc1)NC(=O)OC1COC2OCCC12 (stereo not given in full)
– | 8.15 | 7.01 | 92% | – | – | – | Cc1ccc(O)c(C)c1OCC(=O)N[C@@H](Cc1ccccc1)C[C@H](O)[C@H](Cc1ccccc1)NC(=O)O[C@H]1COC2OCCC21 (stereo not given in full)
– | 7.49 | 7.12 | 82% | – | – | – | Cc1cc(O)cc(C)c1OCC(=O)N[C@@H](Cc1ccccc1)C[C@H](O)[C@H](Cc1ccccc1)NC(=O)O[C@H]1COC2OCCC21 (stereo not given in full)
– | 8.30 | 7.46 | 87% | – | – | – | Cc1ccc(N)c(C)c1OCC(=O)N[C@@H](Cc1ccccc1)C[C@H](O)[C@H](Cc1ccccc1)NC(=O)O[C@H]1COC2OCCC21 (stereo not given in full)
– | 7.43 | 6.71 | 88% | – | – | – | Cc1cccc(CO)c1OCC(=O)N[C@@H](Cc1ccccc1)C[C@H](O)[C@H](Cc1ccccc1)NC(=O)O[C@H]1COC2OCCC21 (stereo not given in full)
